# From paper PMC10017428, “Structure of VanS from vancomycin-resistant enterococci: A sensor kinase with weak ATP binding” (The Journal of Biological Chemistry, 2023)
# Key:
# VanSC CA domain [1] = biological target: T1, VanSC CA domain (Enterococcus gallinarum, UniProt Q9KJT3); experiment: biochemical
# EnvZ CA domain = EnvZ CA domain (Escherichia coli, UniProt P0AEJ4); experiment: biochemical
# VanSA CA domain [2] = biological target: T2, VanSA CA domain (Enterococcus faecium, UniProt Q06240); experiment: biochemical
# T2 construct: gene vanS
# VanSC CA domain [3] = biological target: T1, VanSC CA domain; experiment: TNP-ATP displacement, fluorescence; format: binding; conditions: 50 mM Tris-Cl pH 7.5, 50 mM KCl, 5 mM MgCl2, 10 μM TNP-ATP; competitive
# VanSA CA domain [4] = biological target: T2, VanSA CA domain; experiment: TNP-ATP displacement, fluorescence; format: binding; conditions: 50 mM Tris-Cl pH 7.5, 50 mM KCl, 5 mM MgCl2, 10 μM TNP-ATP; competitive
# T2 sequence (Q06240 221-384): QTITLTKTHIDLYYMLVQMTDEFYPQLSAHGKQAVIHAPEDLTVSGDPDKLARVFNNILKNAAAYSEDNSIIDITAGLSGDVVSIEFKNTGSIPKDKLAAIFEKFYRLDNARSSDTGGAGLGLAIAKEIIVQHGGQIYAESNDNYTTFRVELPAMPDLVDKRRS
# T1 sequence (Q9KJT3 208-361): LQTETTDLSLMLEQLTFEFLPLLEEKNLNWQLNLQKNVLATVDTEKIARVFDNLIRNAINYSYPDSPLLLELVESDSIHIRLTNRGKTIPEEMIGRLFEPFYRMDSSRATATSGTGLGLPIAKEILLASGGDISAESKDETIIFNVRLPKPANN
# Chain of EnvZ CA domain (P0AEJ4 289-450): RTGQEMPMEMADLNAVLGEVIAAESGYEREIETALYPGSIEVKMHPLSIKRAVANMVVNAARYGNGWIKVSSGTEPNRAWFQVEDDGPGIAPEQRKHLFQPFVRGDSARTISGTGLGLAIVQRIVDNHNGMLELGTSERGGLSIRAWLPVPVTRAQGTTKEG
SMILES,Kd (VanSC CA domain [1]) [mM],Kd (EnvZ CA domain) [µM],Kd (VanSA CA domain [2]) [mM],"TNP-ATP displacement, fluorescence (VanSC CA domain [3])","TNP-ATP displacement, fluorescence (VanSA CA domain [4])"
Nc1ncnc2c1ncn2[C@@H]1O[C@H](COP(=O)(O)OP(=O)(O)OP(=O)(O)O)[C@@H](O)[C@H]1O [ATP],3.128 ± 0.0004,83.3 ± 0.2,3.948 ± 0.001,,
Nc1nc2c(ncn2[C@@H]2O[C@H](COP(=O)(O)OP(=O)(O)OP(=O)(O)O)[C@@H](O)[C@H]2O)c(=O)[nH]1 [GTP],,,,GTP bound less tightly than ATP to both VanSA and VanSC,GTP bound less tightly than ATP to both VanSA and VanSC
